Patent US20110105457A1, “HETEROCYCLIC COMPOUND HAVING INHIBITORY ACTIVITY ON PI3K” (SHIONOGI & CO., LTD., priority 2008, published 2011)

These compounds were tested against PI-3 kinase γ (Homo sapiens, UniProt P48736) (assay: PI3Kγ inhibitory activity, PI3-kinase HTRF assay (Millipore)). Conditions: 0.5 h; compound 50 μM; read-out: Inhibition ratio % (50 μM).
Format: biochemical
Experimental: (Method) The PI3Kγ inhibitory activity of a compound was evaluated using PI3-kinase HTRF™ assay (Millipore) according to the following procedure.
To each well of a testing plate was added 5 μL of a compound solution comprising 10% DMSO (200 μM as the concentration of the compound), 5 μL of 40 μM phosphatidylinositol (4,5)-bisphosphate/20 mM MgCl2/10 mM DTT, and 5 μL of 80 μg/mL PI-3 kinase γ/10 mM MgCl2/5 mM DTT, and then stood for 10 minutes.
Then, 5 μL of 40 μM ATP/10 mM MgCl2/5 mM DTT was added thereto. After reacting for 30 minutes at room temperature, 5 μL of a solution comprising EDTA and biotinylated phosphatidylinositol (3,4,5)-triphosphate was added to quench the reaction.
5 μL of a detection reagent comprising a europium-labeled anti-GST antibody, the GST-tagged PH domain, and allophycocyanin-labeled streptavidin was added thereto. After 18 hours, HTRF (excitation wavelength: 330 nm, measuring wavelengths: 620 nm and 665 nm) was measured.
A value of dividing an amount of fluorescence obtained at the measuring wavelength 665 nm by an amount of fluorescence obtained at 620 nm was defined as an HTRF ratio. The HTRF ratio in the absence of a compound was defined as 100% activity, and the HTRF ratio in the absence of PI-3 kinase γ was defined as 0% activity to calculate an inhibition ratio.

Chain of PI-3 kinase γ (P48736 whole entry): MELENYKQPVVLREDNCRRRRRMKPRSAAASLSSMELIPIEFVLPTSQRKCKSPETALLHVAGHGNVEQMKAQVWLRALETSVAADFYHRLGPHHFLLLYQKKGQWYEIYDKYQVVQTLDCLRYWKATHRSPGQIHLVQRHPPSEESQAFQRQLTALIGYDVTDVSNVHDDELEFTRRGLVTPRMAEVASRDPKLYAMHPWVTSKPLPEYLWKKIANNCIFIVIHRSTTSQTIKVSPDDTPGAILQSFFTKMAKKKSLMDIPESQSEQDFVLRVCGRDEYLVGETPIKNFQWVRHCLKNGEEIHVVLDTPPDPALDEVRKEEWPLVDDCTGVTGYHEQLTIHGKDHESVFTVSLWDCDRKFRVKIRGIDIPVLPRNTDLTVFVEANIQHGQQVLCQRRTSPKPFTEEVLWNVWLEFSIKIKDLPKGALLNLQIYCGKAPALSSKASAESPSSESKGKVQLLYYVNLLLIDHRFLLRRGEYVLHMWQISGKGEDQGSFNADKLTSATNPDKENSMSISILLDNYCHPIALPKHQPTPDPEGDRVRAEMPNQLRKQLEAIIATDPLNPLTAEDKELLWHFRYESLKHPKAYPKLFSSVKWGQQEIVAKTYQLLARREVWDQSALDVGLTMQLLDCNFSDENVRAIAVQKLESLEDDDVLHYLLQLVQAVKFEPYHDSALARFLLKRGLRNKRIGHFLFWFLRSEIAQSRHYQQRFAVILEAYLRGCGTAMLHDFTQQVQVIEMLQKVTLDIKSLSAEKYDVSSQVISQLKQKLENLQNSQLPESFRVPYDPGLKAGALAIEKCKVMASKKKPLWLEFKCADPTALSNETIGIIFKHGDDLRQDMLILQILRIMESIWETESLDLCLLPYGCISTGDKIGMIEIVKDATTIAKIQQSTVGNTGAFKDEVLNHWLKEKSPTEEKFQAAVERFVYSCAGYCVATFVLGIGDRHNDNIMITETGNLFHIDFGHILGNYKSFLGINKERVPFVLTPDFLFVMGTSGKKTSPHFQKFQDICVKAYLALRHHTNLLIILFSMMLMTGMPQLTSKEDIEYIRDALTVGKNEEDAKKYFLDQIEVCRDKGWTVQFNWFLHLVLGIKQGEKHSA

SMILES	inhibition at 50 µM
COc1cccc(-c2ccc3nc(NC(=O)NC4CCCC4)cn3n2)c1 [Compound I-115]	78%
COc1cccc(-c2ccc3nc(NC(=O)NCCCl)cn3n2)c1 [Compound I-116]	76%
CCCCNC(=O)Nc1cn2nc(-c3cccc(OC)c3)ccc2n1 [Compound I-117]	85%
CNC(=O)Nc1cn2nc(C(=O)N[C@@H](C)C(N)=O)ccc2n1 [Compound I-121]	71%
CNC(=O)Nc1cn2nc(N3CCOC3=O)ccc2n1 [Compound I-122]	61%
CNC(=O)Nc1cn2nc(-c3cccc(NC(C)=O)c3)ccc2n1 [Compound I-124]	105%
CNC(=O)Nc1cn2nc(-c3cccc(C(C)C)c3)ccc2n1 [Compound I-127]	79%
CNC(=O)Nc1cn2nc(-c3cccc([N+](=O)[O-])c3)ccc2n1 [Compound I-128]	50%
CNC(=O)Nc1cn2nc(-c3cccc(COC(C)(C)C)c3)ccc2n1 [Compound I-131]	70%
CNC(=O)Nc1cn2nc(-c3cccc(COC)c3)ccc2n1 [Compound I-132]	78%
CNC(=O)Nc1cn2nc(-c3ccc(-c4ccccc4)s3)ccc2n1 [Compound I-133]	65%
CNC(=O)Nc1cn2nc(-c3cccc(C#N)c3)ccc2n1 [Compound I-134]	59%
CNC(=O)Nc1cn2nc(-c3cccc(SC)c3)ccc2n1 [Compound I-135]	80%
CNC(=O)Nc1cn2nc(-c3cccc(C(=O)N4CCOCC4)c3)ccc2n1 [Compound I-138]	75%
CNC(=O)Nc1cn2nc(-c3cccc(C(=O)NC(C)C)c3)ccc2n1 [Compound I-139]	79%
CNC(=O)Nc1cn2nc(-c3cccc(C(=O)NCC(C)C)c3)ccc2n1 [Compound I-140]	60%
CNC(=O)Nc1cn2nc(-c3cn[nH]c3)ccc2n1 [Compound I-141]	87%
CNC(=O)Nc1cn2nc(-c3cncnc3)ccc2n1 [Compound I-145]	70%
CNC(=O)Nc1cn2nc(-c3cccc(OC(C)=O)c3)ccc2n1 [Compound I-146]	64%
CNC(=O)Nc1cn2nc(-c3ccncc3)ccc2n1 [Compound I-147]	77%
CNC(=O)Nc1cn2nc(-c3ccc(OC)nc3)ccc2n1 [Compound I-148]	83%
CNC(=O)Nc1cn2nc(/C=C/c3ccc(OC)cc3)ccc2n1 [Compound I-149]	53%
CNC(=O)Nc1cn2nc(-c3cccc(OCc4ccccc4)c3)ccc2n1 [Compound I-150]	71%
CNC(=O)Nc1cn2nc(-c3cccc(OC)n3)ccc2n1 [Compound I-151]	63%
CNC(=O)Nc1cn2nc(-c3cccc(O)c3)ccc2n1 [Compound I-152]	80%
CNC(=O)Nc1cn2nc(-c3cccc(C(F)(F)F)c3)ccc2n1 [Compound I-154]	54%

SMILES	inhibition at 50 µM
CNC(=O)Nc1cn2nc(-c3cccc(-c4ccccc4)c3)ccc2n1 [Compound I-155]	57%
CNC(=O)Nc1cn2nc(COc3ccccc3)ccc2n1 [Compound I-157]	58%
CNC(=O)Nc1cn2nc(NC(=O)Nc3cccc(C(=O)O)c3)ccc2n1 [Compound I-159]	86%
CNC(=O)Nc1cn2nc(NC(=O)c3ccc(C(=O)O)cc3)ccc2n1 [Compound I-160]	77%
CNC(=O)Nc1cn2nc(Nc3cccc(N(C)C)c3)ccc2n1 [Compound I-161]	102%
CNC(=O)Nc1cn2nc(Nc3cccc(C(=O)O)c3)ccc2n1 [Compound I-162]	89%
COc1cccc(-c2ccc3nc(NC(=O)CC(C)CC(C)(C)C)cn3n2)c1 (stereo not shown) [Compound I-164]	89%
COc1cccc(-c2ccc3nc(NC(=O)c4ccccn4)cn3n2)c1 [Compound I-168]	64%
COc1cccc(-c2ccc3nc(NC(=O)c4ccncc4)cn3n2)c1 [Compound I-170]	60%
COC(=O)C[C@H](C)CC(=O)Nc1cn2nc(-c3cccc(OC)c3)ccc2n1 [Compound I-171]	71%
COc1cccc(-c2ccc3nc(NC(=O)CCC(=O)N(C)C)cn3n2)c1 [Compound I-172]	81%
COc1cccc(-c2ccc3nc(NC(=O)Cc4ccccc4OC)cn3n2)c1 [Compound I-174]	78%
COc1cccc(-c2ccc3nc(NC(=O)CNC(C)=O)cn3n2)c1 [Compound I-175]	66%
COc1cccc(-c2ccc3nc(NC(=O)c4ccc5[nH]nnc5c4)cn3n2)c1 [Compound I-177]	85%
COc1cccc(-c2ccc3nc(NC(=O)c4ccc[nH]4)cn3n2)c1 [Compound I-180]	96%
COc1cccc(-c2ccc3nc(NC(=O)CC(C)(C)C)cn3n2)c1 [Compound I-186]	78%
COc1cccc(-c2ccc3nc(NC(=O)CC4CC4)cn3n2)c1 [Compound I-188]	65%
COC(=O)c1cccc(C(=O)Nc2cn3nc(-c4cccc(OC)c4)ccc3n2)c1 [Compound I-192]	52%
COc1cccc(-c2ccc3nc(NC(=O)C4CCOCC4)cn3n2)c1 [Compound I-194]	84%
COC(=O)[C@H]1CC[C@@H](C(=O)Nc2cn3nc(-c4cccc(OC)c4)ccc3n2)C1 [Compound I-195]	82%
COc1cccc(-c2ccc3nc(NC(=O)c4ccc(OC)c(OC)c4)cn3n2)c1 [Compound I-198]	57%
COc1cccc(-c2ccc3nc(NC(=O)c4cccc(N5CCOCC5)c4)cn3n2)c1 [Compound I-202]	83%
COc1cccc(-c2ccc3nc(NC(=O)c4cccc(N5CCN(C)CC5)c4)cn3n2)c1 [Compound I-203]	68%
COc1cccc(-c2ccc3nc(NC(=O)c4cccc(-n5cncn5)c4)cn3n2)c1 [Compound I-204]	84%
COc1cccc(-c2ccc3nc(NC(=O)[C@H]4CCCCN4C(=O)OC(C)(C)C)cn3n2)c1 [Compound I-207]	64%
COc1cccc(-c2ccc3nc(NC(=O)CCCN4CCCC4=O)cn3n2)c1 [Compound I-209]	81%

SMILES	inhibition at 50 µM
COc1cccc(-c2ccc3nc(NC(=O)C4CCN4C(C)(C)C)cn3n2)c1 (stereo not shown) [Compound I-211]	61%
COc1cccc(-c2ccc3nc(NC(=O)CN(C)C(=O)OC(C)(C)C)cn3n2)c1 [Compound I-212]	60%
COCCC(=O)Nc1cn2nc(-c3cccc(OC)c3)ccc2n1 [Compound I-213]	73%
CNC(=O)Nc1cn2nc(Nc3cccc(C(N)=O)c3)ccc2n1 [Compound I-215]	70%
CNC(=O)Nc1cn2nc(Nc3cccc(C(=O)NC)c3)ccc2n1 [Compound I-216]	55%
CNC(=O)Nc1cn2nc(COc3cccc(C(=O)OC)c3)ccc2n1 [Compound I-217]	62%
CNC(=O)Nc1cn2nc(COc3cccnc3)ccc2n1 [Compound I-218]	63%
COc1cccc(-c2ccc3nc(Nc4ccccn4)cn3n2)c1 [Compound I-220]	59%
CNC(=O)Nc1cn2nc(Nc3cccc(CO)c3)ccc2n1 [Compound I-222]	87%
CCOC(=O)CNC(=O)Nc1cn2nc(-c3cncc(OC)c3)ccc2n1 [Compound I-223]	86%
COc1cccc(-c2ccc3nc(NC(=O)Nc4nccs4)cn3n2)c1 [Compound I-232]	51%
COc1cccc(-c2ccc3nc(NC(=O)NC4CCCCNC4=O)cn3n2)c1 (stereo not shown) [Compound I-233]	79%
COc1cccc(-c2ccc3nc(NC(=O)NCc4ccco4)cn3n2)c1 [Compound I-234]	71%
COc1cccc(-c2ccc3nc(NC(=O)NCCCN4CCCC4=O)cn3n2)c1 [Compound I-235]	78%
COc1cccc(-c2ccc3nc(NC(=O)NCc4ccccn4)cn3n2)c1 [Compound I-236]	67%
COc1cccc(-c2ccc3nc(NC(=O)NCCNC(C)=O)cn3n2)c1 [Compound I-237]	74%
COc1cccc(-c2ccc3nc(NC(=O)NCc4cccnc4)cn3n2)c1 [Compound I-239]	74%
COc1cccc(-c2ccc3nc(NC(=O)N4CCC[C@H]4CO)cn3n2)c1 [Compound I-240]	73%
COc1cccc(-c2ccc3nc(NC(=O)Nc4ccc5[nH]ccc5c4)cn3n2)c1 [Compound I-241]	67%
COc1cccc(-c2ccc3nc(NC(=O)Nc4ccon4)cn3n2)c1 [Compound I-243]	78%
COCCCNC(=O)Nc1cn2nc(-c3cccc(OC)c3)ccc2n1 [Compound I-244]	87%
COCCNC(=O)Nc1cn2nc(-c3cccc(OC)c3)ccc2n1 [Compound I-245]	76%
COc1cccc(-c2ccc3nc(NC(=O)N4CCC[C@H]4C(=O)OC(C)(C)C)cn3n2)c1 [Compound I-249]	59%
COc1cccc(-c2ccc3nc(NC(=O)NCc4ccoc4)cn3n2)c1 [Compound I-254]	77%
